Laboratory results reported in patent publication US10023592B2, “Bromodomain inhibitors” (Celgene Quanticel Research, Inc., priority 2013, dated 2018).

Columns and labels:
[1] = molecular target: BRD4(BD1) (Homo sapiens (Human), UniProt O60885); test: In vitro enzyme inhibition assay (BRD4 AlphaScreen); type: binding
How it was run: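 AlphaScreen proximity readout, using streptavidin donor and Ni-chelate acceptor beads at 5 μg/mL final, monitors biotin-H4 tetraacetylated peptide interaction with purified His-tagged BRD4.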

[2] = test system: Raji, human Burkitts lymphoma cells; test: Cell-MTS proliferation assay, Raji; type: cell-based; settings: Homo sapiens, 168 hr
How it was run: (§1)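 Cells were seeded per 96-well at densities giving ~90% confluence by day 7 (Raji 15,000, HL-60 5,000, NCI-H460 3,000) and dosed 24 hr later with an 11-point dilution, 100 μM to 2.0 nM final. Seven-day MTS colorimetric read at OD490; IC50 from background-subtracted, DMSO-normalised values.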

[3] = test system: HL-60, human proleukemia cells; test: Cell-MTS proliferation assay, HL-60; type: cell-based; settings: Homo sapiens, 168 hr
How it was run: as §1

[4] = test system: NCI-H460, human non-small cell lung cancer cells; test: Cell-MTS proliferation assay, NCI-H460; type: cell-based; settings: Homo sapiens, 168 hr
Experimental: The Cell-MTS assay is a 7-day plate-based colorimetric assay which quantifies the amount of newly generated NADH in the presence or absence of test compound. The NADH level is used for the quantification of cancer cell proliferation.
Established cancer cell lines with a variety of driving mutations were obtained from American Type Culture Collection (ATCC) and routinely passaged according to ATCC protocols. For routine assay, these cells were seeded at densities which enabled ˜90% confluence after 7 days of culture. Raji, human Burkitts lymphoma cells, (cMYC) were seeded at 15,000 cells per 96-well. HL-60, human proleukemia cells, (NRAS, p16, p53, c-Myc amplified) were seeded at 5,000 cells per 96-well. NCI-H460, human non-small cell lung cancer cells, (KRAS, PIK3CA, STLK11, p16) were seeded at 3,000 cells per 96-well. 24 hr after plating, cells received an 11-point dilution of test compound with final concentration ranges from 100 μM to 2.0 nM. […] At the end of this incubation period, 80 μL of media is removed and 20 μL of CellTiter 96® AQueous Non-Radioactive Cell Proliferation Assay soln (Promega) was added. The cells were incubated until the OD490 was >0.6. IC50 values were calculated using the IDBS XLfit software package and include background subtracted OD490 values and normalization to DMSO controls. Cellular proliferation IC50 values were uploaded and archived using the Chem Biography Platform.

[5] = in vitro enzyme inhibition assay
[6] = Cell-MTS proliferation, Raji cells
[7] = Cell-MTS proliferation, HL-60 cells
[8] = Cell-MTS proliferation, NCI-H460 cells
[9] = NCI-H460, Cell-MTS proliferation
[10] = Raji, Cell-MTS, class symbols A/B/C
[11] = HL-60, Cell-MTS, class symbols A/B/C
[12] = NCI-H460, Cell-MTS, class symbols A/B/C

IC50 [1, 5] [nM]	IC50 [2, 6] [nM]	IC50 [3, 7] [nM]	IC50 [4, 8] [nM]	IC50 ([2]; Raji, Cell-MTS proliferation) [nM]	IC50 ([3]; HL-60, Cell-MTS proliferation) [nM]	IC50 [4, 9] [nM]	IC50 ([1]; class symbols A/B/C) [nM]	IC50 [2, 10] [nM]	IC50 [3, 11] [nM]	IC50 [4, 12] [nM]	SMILES
< 500	< 500	< 500	500 to 5000								Cn1cc(-c2cc(CS(C)(=O)=O)ccc2Oc2ccc(F)cc2F)ccc1=O [Example 470, 5-[2-(2,4-difluorophenoxy)-5-(methylsulfonylmethyl)phenyl]-1-methylpyridin-2-one]
< 500	< 500	< 500	> 5000								CCn1cc(-c2cc(CS(C)(=O)=O)ccc2Oc2ccc(F)cc2F)cc(C)c1=O [Example 429, 5-[2-(2,4-difluorophenoxy)-5-(methylsulfonylmethyl)phenyl]-1-ethyl-3-methylpyridin-2-one]
< 500				< 500	< 500	> 5000					Cc1cc(-c2cc(N(C)S(C)(=O)=O)ccc2Oc2ccc(F)cc2F)cn(C)c1=O [Example 229, N-[4-(2,4-difluorophenoxy)-3-(1,5-dimethyl-6-oxopyridin-3-yl)phenyl]-N-methylmethanesulfonamide]
							< 500	> 5000	500 to 5000	> 5000	Cn1cc(-c2cc(S(C)(=O)=O)ccc2OCC2CC2)cc(N)c1=O [Example 116, 3-amino-5-[2-(cyclopropylmethoxy)-5-methylsulfonylphenyl]-1-methylpyridin-2-one]
< 500	500 to 5000	< 500	> 5000								CCS(=O)(=O)c1ccc(OCC#CC2CC2)c(-c2cc(OC)c(=O)n(C)c2)c1 [Example 391, 5-[2-(3-cyclopropylprop-2-ynoxy)-5-ethylsulfonylphenyl]-3-methoxy-1-methylpyridin-2-one]
< 500	500 to 5000	< 500	> 5000								CCS(=O)(=O)c1ccc(OC2CCC(F)(F)CC2)c(-c2cn(C)c(=O)c3cncn23)c1 [Example 373, 5-[2-(4,4-difluorocyclohexyl)oxy-5-ethylsulfonylphenyl]-7-methylimidazo[1,5-a]pyrazin-8-one]
< 500	< 500	< 500	> 5000								Cn1cc(-c2cn(CS(C)(=O)=O)c(=O)cc2Oc2ccc(F)cc2F)c2ccccc2c1=O [Example 387, 4-[4-(2,4-difluorophenoxy)-1-(methylsulfonylmethyl)-6-oxopyridin-3-yl]-2-methylisoquinolin-1-one]
< 500				< 500	< 500	> 5000					CCS(=O)(=O)c1ccc(OCC2CC2)c(-c2cc(Cl)c(=O)n(C)c2)c1 [Example 272, 3-chloro-5-[2-(cyclopropylmethoxy)-5-ethylsulfonylphenyl]-1-methylpyridin-2-one]
> 5000	> 5000	> 5000	> 5000								Cn1cc(-c2cc(S(N)(=O)=O)ccc2NCC2CC2)ccc1=O [Example 453, 4-(cyclopropylmethylamino)-3-(1-methyl-6-oxopyridin-3-yl)benzenesulfonamide]
< 500				< 500	< 500	500 to 5000					CCS(=O)(=O)Nc1cc(Oc2ccc(F)cc2F)cc(-c2cc(C)c(=O)n(C)c2)c1 [Example 342, N-[3-(2,4-difluorophenoxy)-5-(1,5-dimethyl-6-oxopyridin-3-yl)phenyl]ethanesulfonamide]
< 500	< 500	< 500	> 5000								CN(C)c1cc(-c2cc(S(C)(=O)=O)ccc2NCC2CC2)cn(C)c1=O [Example 438, 5-[2-(cyclopropylmethylamino)-5-methylsulfonylphenyl]-3-(dimethylamino)-1-methylpyridin-2-one]
< 500				< 500	< 500	> 5000					CCCOc1ccc(S(=O)(=O)CC)cc1-c1cn(C)c(=O)c2cnc(-c3cnn(C)c3)nc12 [Example 225, 8-(5-ethylsulfonyl-2-propoxyphenyl)-6-methyl-2-(1-methylpyrazol-4-yl)pyrido[4,3-d]pyrimidin-5-one]
< 500				< 500	< 500	> 5000					CCS(=O)(=O)c1ccc(NCC2CC2)c(-c2cn(C)c(=O)c3cc(F)ccc23)c1 [Example 195, 4-[2-(cyclopropylmethylamino)-5-ethylsulfonylphenyl]-7-fluoro-2-methylisoquinolin-1-one]
							< 500	< 500	< 500	> 5000	Cn1cc(-c2cc(S(N)(=O)=O)ccc2Oc2ccc(F)cc2F)ccc1=O [Example 118, 4-(2,4-difluorophenoxy)-3-(1-methyl-6-oxopyridin-3-yl)benzenesulfonamide]
< 500				500 to 5000	500 to 5000	> 5000					Cn1cc(-c2cc(CS(C)(=O)=O)ccc2OCC(F)(F)F)n2cncc2c1=O [Example 370, 7-methyl-5-[5-(methylsulfonylmethyl)-2-(2,2,2-trifluoroethoxy)phenyl] imidazo[1,5-a]pyrazin-8-one]
< 500				< 500	< 500	> 5000					CCS(=O)(=O)c1ccc(OCC2CC2)c(-c2cc(C3CC3)c(=O)n(C)c2)c1 [Example 280, 3-cyclopropyl-5-[2-(cyclopropylmethoxy)-5-ethylsulfonylphenyl]-1-methylpyridin-2-one]
< 500				500 to 5000	500 to 5000	> 5000					Cn1cc(Oc2cc(-c3cc(S(C)(=O)=O)ccc3OCC3CC3)cn(C)c2=O)cn1 [Example 293, 5-[2-(cyclopropylmethoxy)-5-methylsulfonylphenyl]-1-methyl-3-(1-methylpyrazol-4-yl)oxypyridin-2-one]
< 500	500 to 5000	< 500	> 5000								Cc1cc(=O)n(C)cc1-c1cc(S(C)(=O)=O)ccc1OCC1CC1 [Example 477, 5-[2-(cyclopropylmethoxy)-5-methylsulfonylphenyl]-1,4-dimethylpyridin-2-one]
500 to 5000	> 5000	500 to 5000	> 5000								Cc1cc(-c2cc(S(C)(=O)=O)cc3c2OC(C)C3)cn(C)c1=O (stereo not drawn) [Example 486, 1,3-dimethyl-5-(2-methyl-5-methylsulfonyl-2,3-dihydro-1-benzofuran-7-yl)pyridin-2-one]
< 500				< 500	< 500	> 5000					CCS(=O)(=O)Nc1ncc(Oc2ccc(F)cc2F)c(-c2cc(C)c(=O)n(CC3CC3)c2)n1 [Example 249, N-[4-[1-(cyclopropylmethyl)-5-methyl-6-oxopyridin-3-yl]-5-(2,4-difluorophenoxy)pyrimidin-2-yl]ethanesulfonamide]
< 500				> 5000	500 to 5000	> 5000					CC(C)n1cc(Oc2cc(-c3cc(S(C)(=O)=O)ccc3OCC3CC3)cn(C)c2=O)cn1 [Example 294, 5-[2-(cyclopropylmethoxy)-5-methylsulfonylphenyl]-1-methyl-3-(1-propan-2-ylpyrazol-4-yl)oxypyridin-2-one]
< 500				500 to 5000	< 500	> 5000					Cn1cc(-c2cc(S(C)(=O)=O)ccc2OCC2CC2)c2cc(C(N)=O)sc2c1=O [Example 267, 4-[2-(cyclopropylmethoxy)-5-methylsulfonylphenyl]-6-methyl-7-oxothieno[2,3-c]pyridine-2-carboxamide]
< 500				< 500	< 500	> 5000					CCS(=O)(=O)Nc1cnc(Oc2ccc(F)cc2F)c(-c2cn(C)c(=O)c3occc23)c1 [Example 256, N-[6-(2,4-difluorophenoxy)-5-(6-methyl-7-oxofuro[2,3-c]pyridin-4-yl)pyridine-3-yl]ethanesulfonamide]
500 to 5000				> 5000	> 5000	> 5000					Cc1cc(-c2nc(S(C)(=O)=O)ncc2Oc2ccc(F)cc2F)cn(C)c1=O [Example 149, 5-[5-(2,4-difluorophenoxy)-2-methylsulfonylpyrimidin-4-yl]-1,3-dimethylpyridin-2-one]
